Measured values from ChEMBL document CHEMBL1141753, “Cytotoxic diterpenoids from the soft coral Sinularia microclavata” (J Nat Prod, 2005).
Converted amounts (≈) assume the structure as drawn.

Tests used:
Type in all cases: functional, cell-based
A549 = test: Cytotoxicity against human A549 cells by MTT assay
MCF7 = test: Cytotoxicity against human MCF7 cells by MTT assay
KB = test: Cytotoxicity against human KB cells by MTT assay

Compound | IC50 (A549) | IC50 (MCF7) | IC50 (KB)
C=C1C(=O)O[C@]2(C)CC[C@@H]1C[C@@H](O)[C@@](C)(O)CC/C=C(\C)CC[C@@H]2O [CAPILLOLIDE] | 0.5 µg/mL (≈ 1.42 µM) |  | 
C/C1=C\[C@@H]2[C@H](CC[C@H](C)CC(=O)[C@@H]3O[C@]3(C)/C=C/C1=O)C2(C)C [MICROCLAVATIN] |  | 20 µg/mL (≈ 63.2 µM) | 5 µg/mL (≈ 15.8 µM)
